Patent US4311685A, “Assay method and kit” (Burroughs Wellcome Co., priority 1979, dated 1982)

Test: in vitro
Conditions: human, plasma

## CC(C)NCC(O)COc1cccc2ccccc12 (racemic) [propranolol]
  fraction unbound at 12 h, 0.07 µM: 0.117
